Reference: US10344035B2, “Salt of quinolone compound, polymorphs thereof, preparation method therefor, composition, and applications” (SHANGHAI PHARMACEUTICALS HOLDING CO., LTD., priority 2015, dated 2019)
Structures can show the parent of a compound that is named as a salt.

Experiment: Pharmacokinetic study in rats
Conditions: for concentration at 60 min / concentration at 90 min / concentration at 120 min / concentration at 240 min / concentration at 360 min / concentration at 480 min / concentration at 720 min / concentration at 1440 min / concentration at 5 min / concentration at 15 min / concentration at 30 min: oral, 20 μmol/kg, intragastric 20 μmol/kg
Method: All stock solutions of the test compound were sonicated and heated to become clarified and formulated to a 25 mM solution with DMSO.
All samples were dosed at 20 μmol/kg.
The blood sample was centrifuged at 8000 rpm for 5 min, the plasma was collected in a centrifuge tube and stored at −20° C. for use.
Treatment of the plasma sample: the proteins in 50 μL plasma sample were precipitated with 200 μL acetonitrile containing internal standard (Propranolol (PRO), 2.5 ng/mL). Vortexed for 10 min, centrifuged at 6000 g for 10 min, the supernatant was taken and 5-fold diluted with the mobile phase, and the supernatant was injected into a 96-well plate for analysis.
flow rate: 0.3 mL/min; injection volume: 2 μL; column temperature 45° C. The gradient elution procedure was: […]
The ion source was an electrospray ionization source (Turbo Ionspray, ESI); the electrospray voltage was 5500V; the temperature was 500° C.; pressure of ion source gas 1 (N2) was 50 psi; pressure of ion source gas 2 (N2) was 50 psi; pressure of curtain gas (N2) 20 psi; pressure of collision gas (CAD) was Medium; scan time was 100 ms; positive ion mode detection; scan mode was multiple reaction monitoring (MRM), ion reaction and collision energy (CE) for quantitative analysis, declustering potential (DP) are shown in the following table: […]

[1] = SD (Sprague-Dawley), rat, plasma, Plasma concentration Mean, SD rats, mean of 3 rats
[2] = SD (Sprague-Dawley), rat, plasma, Plasma concentration Rat1, SD rats, Rat1
[3] = SD (Sprague-Dawley), rat, plasma, Plasma concentration Rat 2, SD rats, Rat 2
[4] = SD (Sprague-Dawley), rat, plasma, Plasma concentration Rat 3, SD rats, Rat 3
[5] = SD rats, intragastric, 20 umol/kg
[6] = SD, rat, plasma, Plasma concentration Mean, SD rats, mean of 3 rats
[7] = SD, rat, plasma, Plasma concentration Rat1, SD rats, Rat1
[8] = SD, rat, plasma, Plasma concentration Rat 2, SD rats, Rat 2
[9] = SD, rat, plasma, Plasma concentration Rat 3, SD rats, Rat 3

For `CNC(=O)c1ccc(-c2cnc3ncc(Cc4ccc5ncccc5c4)n3n2)cc1F` [INCB28060 hydrochloride], the concentration at 60 min [1] was 910 nM, the concentration at 90 min [1] was 730 nM and the concentration at 120 min [1] was 600 nM. The concentration at 240 min [1] was 430 nM, the concentration at 360 min [1] was 180 nM and the concentration at 480 min [1] was 80 nM. For the same molecule, the concentration at 720 min [1] was 30 nM, the concentration at 1440 min [1] was 10 nM and the concentration at 5 min [2] was 15.3 nM. The concentration at 60 min [2] was 616 nM, the concentration at 90 min [2] was 394 nM and the concentration at 120 min [2] was 305 nM. It also gave a concentration at 240 min [2] of 465 nM, a concentration at 360 min [2] of 193 nM and a concentration at 480 min [2] of 88.5 nM. For the same molecule, the concentration at 720 min [2] was 62.6 nM, the concentration at 1440 min [2] was 8.08 nM and the concentration at 5 min [3] was 42.5 nM. It also gave a concentration at 60 min [3] of 1210 nM, a concentration at 90 min [3] of 961 nM and a concentration at 120 min [3] of 725 nM. It also gave a concentration at 240 min [3] of 333 nM, a concentration at 360 min [3] of 148 nM and a concentration at 480 min [3] of 42 nM. It also gave a concentration at 720 min [3] of 13.1 nM, a concentration at 1440 min [3] of 6.99 nM and a concentration at 5 min [4] of 22.2 nM. For the same molecule, the concentration at 60 min [4] was 897 nM, the concentration at 90 min [4] was 835 nM and the concentration at 120 min [4] was 758 nM. For the same molecule, the concentration at 240 min [4] was 495 nM, the concentration at 360 min [4] was 211 nM and the concentration at 480 min [4] was 107 nM. For the same molecule, the concentration at 720 min [4] was 25.7 nM, the concentration at 1440 min [4] was 15.6 nM and the Clearance [5] was 89 mL/min/kg. It also gave a Vss [5] of 24.325 L/kg, a Vz [5] of 35.978 L/kg and a thalf [5] of 283.79 min. The concentration at 5 min [6] was 30 nM, the concentration at 15 min [6] was 530 nM and the concentration at 30 min [6] was 1030 nM. The concentration at 15 min [7] was 399 nM, the concentration at 30 min [7] was 784 nM and the concentration at 15 min [8] was 732 nM. The concentration at 30 min [8] was 1320 nM, the concentration at 15 min [9] was 448 nM and the concentration at 30 min [9] was 990 nM. It also gave an AUC(0-t) (SD, rat, plasma, po, 20 umol/kg, AUC(0-t), SD rats, intragastric) of 3.73 µM·h, an AUC (SD, rat, plasma, po, 20 umol/kg, AUCextra, SD rats, intragastric) of 0.0715 µM·h and an AUC (SD, rat, plasma, po, 20 umol/kg, AUCtot, SD rats, intragastric) of 3.8 µM·h. It also gave a Cmax (SD, rat, plasma, po, 20 umol/kg, Cmax, SD rats, intragastric) of 1030 nM, an MRT (SD, rat, plasma, po, 20 umol/kg, MRT, SD rats, intragastric) of 4.53 h and a Tmax (SD, rat, plasma, po, 20 umol/kg, Tmax, SD rats, intragastric) of 0.5 h. The “exposure in rats (comparison in words)” value (rats, 20 μmol/kg intragastric) was “not as good as that of crystal form A of SPH1772 ditartrate and crystal form A of SPH1772”.
